# According to paper PMC13089524, “Development of SYK NanoBRET cellular target engagement assays for gain–of–function variants” (Frontiers in chemical biology, 2024):
# Entries after “also recorded” stand apart in the source; their conditions may differ.
# Experiments:
# SYK(M450I)-NL = target: T1, SYK(M450I)-NL (Homo sapiens, UniProt P43405, M450I); assay: NanoBRET assay in digitonin permeabilized HEK293 cells, SYK(M450I)-NL; format: cell-based; conditions: fixed concentration of tracer 8, average ± SEM, read-out: IC50, SYK(variant)-NL M450I
# T1 construct: host or cells: HEK293
# Description: (§1) We performed NanoBRET tracer optimization to determine if the SYK tracers could effectively generate a BRET signal. […] To enable the NanoBRET assay using tracer 8 with cells permeabilized by digitonin, a tracer dose–response study was performed for each SYK(GoF) variant and SYK(WT) (Figure 3A), followed by tracer titration experiments (Figure 3B; Supplementary Figure S3). […] Initially, we determined the EC50 of tracer 8 for each SYK(GoF) variant and SYK(WT). […] Plates were incubated for 25 min at room temperature if digitonin was added or for 2 h at 37°C in 5% CO2 for the intact cell NanoBRET assay. […] For intact live cells in a 96-well plate, the 3X stock solution was prepared with 30 μL of NanoBRET NanoGlo substrate, 10 μL of extracellular NanoLuc inhibitor, and 4,960 μL of Opti-MEM without phenol red. […] Raw milliBRET units (mBU) were read on a GloMax Discover system (Promega) with a donor emission wavelength of 450 nm and an acceptor emission wavelength of 600 nm. mBU were calculated by dividing the acceptor emission values (600 nm) by the donor emission values (450 nm). For NanoBRET studies with SYK, background corrected mBU were calculated by subtracting the no tracer wells from the tracer-containing wells and multiplying by 1,000. […]
# SYK(S550F) = target: T2, SYK(S550F) (Homo sapiens, UniProt P43405, S550F); assay: PhosphoSens SOX peptide kinase activity assay, SYK(S550F); format: biochemical; conditions: purified protein, 1 mM ATP
# T2 construct: The full-length SYK GoF variants SYK(S550F) and SYK(P342T) along with SYK(WT) were purified from insect cells (Sf9); 6His (N, cleaved yes); GST (N, cleaved yes); made in house; host or cells: Sf9 insect cells (baculovirus, pFastbac1)
# SYK(S550Y)-NL [1] = target: T3, SYK(S550Y)-NL (Homo sapiens, UniProt P43405, S550Y); assay: NanoBRET assay in digitonin permeabilized HEK293 cells, SYK(S550Y)-NL; format: cell-based; conditions: fixed concentration of tracer 8, average ± SEM, read-out: IC50, SYK(variant)-NL S550Y
# T3 construct: host or cells: HEK293
# Description: as §1
# [2] = ref Altman et al., 2011; cited from earlier work
# [3] = tested on: GPCR scan and panel of 113 enzymes and receptors; conditions: at 10 μM; ref Sgc et al., 2024; cited from earlier work
# [4] = tested on: SRC, NTRK1, NTRK3, FGR, FYN, FER, and JAK2; conditions: ref Sgc et al., 2024; cited from earlier work
# SYK(S550F)-NL [5] = target: T4, SYK(S550F)-NL (Homo sapiens, UniProt P43405, S550F); assay: NanoBRET assay in digitonin permeabilized HEK293 cells, SYK(S550F)-NL; format: cell-based; conditions: fixed concentration of tracer 8, average ± SEM, read-out: IC50, SYK(variant)-NL S550F
# T4 construct: host or cells: HEK293
# Description: as §1
# [6] = tested on: pSYK(Y525/526) in SW480 cells stably expressing SYK(S550Y); assay: SYK phosphorylation western blot in SW480 cells stably expressing SYK(S550Y); format: cell-based
# Description: SW480 cells stably expressing S550Y variant were maintained as previously described ([Wang et al., 2021]). For SYK S550Y inhibition, cells were seeded in 12-well plate, at 10^6 cells/well. The next day, medium was replaced and MRL-SYK inhibitor was added at 10 μM and 100 nM for 20 h. Protein lysates were prepared and analyzed on Western blot as previously described ([Wang et al., 2021]).
# SYK(A353T)-NL = target: T5, SYK(A353T)-NL (Homo sapiens, UniProt P43405, A353T); assay: NanoBRET assay in digitonin permeabilized HEK293 cells, SYK(A353T)-NL; format: cell-based; conditions: fixed concentration of tracer 8, average ± SEM, read-out: IC50, SYK(variant)-NL A353T
# T5 construct: host or cells: HEK293
# Description: as §1
# SYK(P342T) = target: T6, SYK(P342T) (Homo sapiens, UniProt P43405, P342T); assay: PhosphoSens SOX peptide kinase activity assay, SYK(P342T); format: biochemical; conditions: purified protein, 1 mM ATP
# T6 construct: The full-length SYK GoF variants SYK(S550F) and SYK(P342T) along with SYK(WT) were purified from insect cells (Sf9); 6His (N, cleaved yes); GST (N, cleaved yes); made in house; host or cells: Sf9 insect cells (baculovirus, pFastbac1)
# SYK(P342T)-NL [7] = target: T7, SYK(P342T)-NL (Homo sapiens, UniProt P43405, P342T); assay: NanoBRET assay in digitonin permeabilized HEK293 cells, SYK(P342T)-NL; format: cell-based; conditions: fixed concentration of tracer 8, average ± SEM, read-out: IC50, SYK(variant)-NL P342T
# T7 construct: host or cells: HEK293
# Description: as §1
# SYK(WT)-NL = target: T8, SYK(WT)-NL (Homo sapiens, UniProt P43405); assay: NanoBRET assay in digitonin permeabilized HEK293 cells, SYK(WT)-NL; format: cell-based; conditions: fixed concentration of tracer 8, average ± SEM, read-out: IC50, SYK(variant)-NL WT
# T8 construct: SYK tracers enable BRET with full-length SYK(WT) after digitonin permeabilization; host or cells: HEK293
# Description: We performed NanoBRET tracer optimization to determine if the SYK tracers could effectively generate a BRET signal. […] To enable the NanoBRET assay using tracer 8 with cells permeabilized by digitonin, a tracer dose–response study was performed for each SYK(GoF) variant and SYK(WT) (Figure 3A), followed by tracer titration experiments (Figure 3B; Supplementary Figure S3). […] Initially, we determined the EC50 of tracer 8 for each SYK(GoF) variant and SYK(WT). […] Plates were incubated for 25 min at room temperature if digitonin was added or for 2 h at 37°C in 5% CO2 for the intact cell NanoBRET assay. […] For intact live cells in a 96-well plate, the 3X stock solution was prepared with 30 μL of NanoBRET NanoGlo substrate, 10 μL of extracellular NanoLuc inhibitor, and 4,960 μL of Opti-MEM without phenol red. For digitonin permeabilized live cells in a 96-well plate, the 3X stock solution was prepared with 30 μL of NanoBRET NanoGlo substrate and 4,970 μL of Opti-MEM without phenol red. Raw milliBRET units (mBU) were read on a GloMax Discover system (Promega) with a donor emission wavelength of 450 nm and an acceptor emission wavelength of 600 nm. mBU were calculated by dividing the acceptor emission values (600 nm) by the donor emission values (450 nm). For NanoBRET studies with SYK, background corrected mBU were calculated by subtracting the no tracer wells from the tracer-containing wells and multiplying by 1,000.
# HEK293 cells were transfected with constructs of SYK(WT) or SYK(KD) tagged with NL on the C- or N-terminus and SYK GoF variants tagged with NL on the C-terminus. Tracer 8 (20X) was prepared from a 400 μM stock solution in DMSO with tracer dilution buffer (Promega, #N291B) and 20% DMSO, with a final assay plate concentration of 1% DMSO. 5 μL of 8 (20X) was added to each well, with exception of the no tracer control wells, with final plate concentrations of 0.5, 1, and 2 μM. 10 μL of digitonin (Fisher, 10X, 500 μg/mL) was added to specific wells to permeabilize the cells. The 10X digitonin stock was prepared by diluting a 40X DMSO solution of digitonin with room temperature Opti-MEM without phenol red, for a final assay plate concentration of 1% DMSO. SYK inhibitor stock solutions of MRL-SYKi (10X) were prepared from 10 mM DMSO stock solutions with room temperature Opti-MEM without phenol red, for final assay plate concentrations of 10 μM. Plates were incubated for 25 min at room temperature if digitonin was added or for 2 h at 37°C in 5% CO2 for the intact cell NanoBRET assay. Two technical replicates were plotted in a bar chart with the standard deviation represented as error bars on Graphpad Prism.
# SYK(P342T)-NL [8] = target: T7, SYK(P342T)-NL; assay: NanoBRET cellular target engagement assay in intact live HEK293 cells, SYK(P342T)-NL; format: cell-based
# Description: (§2) NL orientations used in the respective assays are indicated. […] Plates were incubated for 25 min at room temperature if digitonin was added or for 2 h at 37°C in 5% CO2 for the intact cell NanoBRET assay. […] For intact live cells in a 96-well plate, the 3X stock solution was prepared with 30 μL of NanoBRET NanoGlo substrate, 10 μL of extracellular NanoLuc inhibitor, and 4,960 μL of Opti-MEM without phenol red. For digitonin permeabilized live cells in a 96-well plate, the 3X stock solution was prepared with 30 μL of NanoBRET NanoGlo substrate and 4,970 μL of Opti-MEM without phenol red. Raw milliBRET units (mBU) were read on a GloMax Discover system (Promega) with a donor emission wavelength of 450 nm and an acceptor emission wavelength of 600 nm. mBU were calculated by dividing the acceptor emission values (600 nm) by the donor emission values (450 nm). For NanoBRET studies with SYK, background corrected mBU were calculated by subtracting the no tracer wells from the tracer-containing wells and multiplying by 1,000.
# (§3) MRL-SYKi was used to compete away the NanoBRET signal produced with tracer 8. […] Tracer 8 was prepared in DMSO and DMEM without phenol red in 11-point dose-response format with 3 μM as the top concentration, with a final assay plate concentration of 1% DMSO. 10X stock solutions of MRL-SYKi were prepared from 10 mM DMSO stock solution with room temperature Opti-MEM without phenol red, for final assay plate concentrations of 10 μM. 10 μL of 8 (10X) was added to each well, with the exception of the no tracer control wells, and 10 μL of 10X solutions of MRL-SYKi was added to wells for tracer competition. One biological replicate was plotted in GraphPad Prism with [inhibitor] vs response (three parameters).
# (§4) MRL-SYKi was tested in 11-point dose–response format with a top concentration of 10 μM. […] The final assay plate concentrations included 1% DMSO. 5 μL of 8 (20X) was added to each well, except the no tracer control wells, and 10 μL of 10X threefold diluted solutions of MRL-SYKi was added to wells. Two biological replicates were plotted in GraphPad Prism with log[inhibitor] vs response (three parameters) with the error bars indicating standard deviation.
# (§5) Compounds were tested in 11-point dose–response format with a top concentration of 10 μM. Data are reported as IC50 ± standard error mean (SEM). One biological replicate was plotted in GraphPad Prism with log[inhibitor] vs response (three parameters), the three IC50’s were averaged and the SEM was calculated.
# SYK(S550Y)-NL [9] = target: T3, SYK(S550Y)-NL; assay: NanoBRET cellular target engagement assay in intact live HEK293 cells, SYK(S550Y)-NL; format: cell-based; conditions: for IC50: tracer titration
# Description: as §2, §3, §4, §5
# SYK(S550F)-NL [10] = target: T4, SYK(S550F)-NL; assay: NanoBRET cellular target engagement assay in intact live HEK293 cells, SYK(S550F)-NL; format: cell-based
# Description: as §2, §3, §4, §5
# [11] = tested on: kinases of the KINOMEscan panel; conditions: ref Sgc et al., 2024; cited from earlier work
# SYK = target: T9, SYK (Homo sapiens, UniProt P43405); assay: Eurofins DiscoverX SYK enzymatic radiometric assay; format: biochemical; conditions: Km value for ATP, 9-pt dose-response
# T9 construct: purchased Eurofins DiscoverX (contract assay service)
# Description: Eurofins kinase enzymatic radiometric assays were executed at the Km value for ATP in dose–response (9-pt curve) format for SYK, included in Table 1 as enzymatic IC50 values.
compound,measurement,setting,value
Cc1cc(Nc2nccc(C)n2)cc(-c2cnc([C@@]3(O)CC[C@H](C(=O)O)C(C)(C)C3)s2)c1 [MRL-SYKi],IC50,SYK(M450I)-NL,29 ± 6 nM
same,IC50,SYK(S550F),63 nM
same,IC50,SYK(S550Y)-NL [1],2.1 ± 1 nM
same,cellular activity,[2],< 100 nM
same,off-target inhibition,[3],no off-target inhibition
same,off-target kinases less potent than SYK,[4],≥ 111 fold
same,IC50,SYK(S550F)-NL [5],14 ± 5 nM
same,pSYK(Y525/526) levels via Western blot compared to untreated cells,[6]; 100 nM for 20 h,decrease in pSYK(Y525/526) levels; also recorded: decreased pSYK(Y525/526) levels
same,pSYK(Y525/526) levels via Western blot compared to untreated cells,[6]; 10 μM for 20 h,decrease in pSYK(Y525/526) levels
same,IC50,SYK(A353T)-NL,10 ± 5 nM
same,IC50,SYK(P342T),95 nM
same,IC50,SYK(P342T)-NL [7],4.6 ± 2.6 nM
same,IC50,SYK(WT)-NL,10 nM
same,IC50,"SYK(P342T)-NL [8]; intact HEK293 cells, 125 nM tracer 8, average of triplicate ± SEM, read-out: SYK(P342T) IC50",410 ± 95 nM
same,Kd,"SYK(P342T)-NL [8]; linearized Cheng-Prusoff analysis, y-intercept, tracer 8, single experiment, read-out: KD, app SYK(P342T)",179 nM
same,IC50,"SYK(P342T)-NL [8]; tracer titration, [Tracer] 15.6 nM, read-out: IC50, SYK(P342T)-NL + 8 + MRL-SYKi",134 nM
same,IC50,"SYK(P342T)-NL [8]; tracer titration, [Tracer] 31.2 nM, read-out: IC50, SYK(P342T)-NL + 8 + MRL-SYKi",194 nM
same,IC50,"SYK(P342T)-NL [8]; tracer titration, [Tracer] 62.5 nM, read-out: IC50, SYK(P342T)-NL + 8 + MRL-SYKi",371 nM
same,IC50,"SYK(P342T)-NL [8]; tracer titration, [Tracer] 125 nM, read-out: IC50, SYK(P342T)-NL + 8 + MRL-SYKi",365 nM
same,IC50,"SYK(P342T)-NL [8]; tracer titration, [Tracer] 250 nM, read-out: IC50, SYK(P342T)-NL + 8 + MRL-SYKi",498 nM
same,Kd,"SYK(S550Y)-NL [9]; linearized Cheng-Prusoff analysis, y-intercept, tracer 8, single experiment, read-out: KD, app SYK(S550Y)",27 nM
same,IC50,"SYK(S550Y)-NL [9]; [Tracer] 7.8 nM, read-out: IC50, SYK(S550Y)-NL + 8 + MRL-SYKi",27 nM
same,IC50,"SYK(S550Y)-NL [9]; [Tracer] 15.6 nM, read-out: IC50, SYK(S550Y)-NL + 8 + MRL-SYKi",27 nM
same,IC50,"SYK(S550Y)-NL [9]; [Tracer] 31.2 nM, read-out: IC50, SYK(S550Y)-NL + 8 + MRL-SYKi",32 nM
same,IC50,"SYK(S550Y)-NL [9]; [Tracer] 62.5 nM, read-out: IC50, SYK(S550Y)-NL + 8 + MRL-SYKi",42 nM
same,IC50,"SYK(S550Y)-NL [9]; [Tracer] 125 nM, read-out: IC50, SYK(S550Y)-NL + 7 + MRL-SYKi",41 nM
same,IC50,"SYK(S550Y)-NL [9]; [Tracer] 125 nM, read-out: IC50, SYK(S550Y)-NL + 8 + MRL-SYKi",74 nM
same,IC50,"SYK(S550Y)-NL [9]; [Tracer] 250 nM, read-out: IC50, SYK(S550Y)-NL + 7 + MRL-SYKi",54 nM
same,IC50,"SYK(S550Y)-NL [9]; [Tracer] 500 nM, read-out: IC50, SYK(S550Y)-NL + 7 + MRL-SYKi",98 nM
same,IC50,"SYK(S550Y)-NL [9]; [Tracer] 1000 nM, read-out: IC50, SYK(S550Y)-NL + 7 + MRL-SYKi",220 nM
same,IC50,"SYK(S550F)-NL [10]; intact HEK293 cells, 125 nM tracer 8, average of triplicate ± SEM, read-out: SYK(S550F) IC50",250 ± 48 nM
same,Kd,"SYK(S550F)-NL [10]; linearized Cheng-Prusoff analysis, y-intercept, tracer 8, single experiment, read-out: KD, app SYK(S550F)",46 nM
same,IC50,"SYK(S550F)-NL [10]; tracer titration, [Tracer] 7.8 nM, read-out: IC50, SYK(S550F)-NL + 8 + MRL-SYKi",29 nM
same,IC50,"SYK(S550F)-NL [10]; tracer titration, [Tracer] 15.6 nM, read-out: IC50, SYK(S550F)-NL + 8 + MRL-SYKi",44 nM
same,IC50,"SYK(S550F)-NL [10]; tracer titration, [Tracer] 31.2 nM, read-out: IC50, SYK(S550F)-NL + 8 + MRL-SYKi",77 nM
same,IC50,"SYK(S550F)-NL [10]; tracer titration, [Tracer] 62.5 nM, read-out: IC50, SYK(S550F)-NL + 8 + MRL-SYKi",98 nM
same,IC50,"SYK(S550F)-NL [10]; tracer titration, [Tracer] 125 nM, read-out: IC50, SYK(S550F)-NL + 8 + MRL-SYKi",157 nM
same,IC50,"SYK(S550F)-NL [10]; tracer titration, [Tracer] 250 nM, read-out: IC50, SYK(S550F)-NL + 8 + MRL-SYKi",190 nM
same,selectivity versus the protein kinase family in the KINOMEscan panel,[11],greater than 30 fold
same,IC50,SYK,30 nM
